Source: ChEMBL document CHEMBL3886852, “Triazolo compounds as PDE10 inhibitors” (2016)

Target: cAMP and cAMP-inhibited cGMP 3',5'-cyclic phosphodiesterase 10A (Homo sapiens, UniProt Q9Y233)
Test: Scintillation Proximity Assay: The human PDE10A full length assay was performed in 96-well micro titer plates. The reaction mixture of 50 μl contained 20 mM HEPES pH=7.5/10 mM MgCl2/0.05 mg/ml BSA (Sigma cat. # A-7906), 50 nM cGMP (Sigma, cat. # G6129) and 50 nM [3H]-cGMP (GE Healthcare, cat. # TRK392 S.A. 13.2 Ci/mmol), 3.75 ng/well PDE10A enzyme (Enzo Life Science, Lausen, Switzerland cat # SE-534) with or without a specific test compound. A range of concentrations of the potential inhibitor was used to generate data for calculating the concentration of inhibitor resulting in 50% of the effect (e.g. IC50, the concentration of the competitor inhibiting PDE10A activity by 50%). Non-specific activity was tested without the enzyme. The reaction was initiated by the addition of the substrate solution (cGMP and [3H]-cGMP) and allowed to progress for 20 minutes at room temperature. The reaction was terminated by adding 25 μl of YSi-SPA scintillation beads (GE Healthcare, cat. # RPNQ0150) in 18 mM zinc sulphate solution (stop reagent). After 1 h under shaking, the plate was centrifuged one minute at 170 g to allow beads to settle. Afterwards, radioactive counts were measured on a Perkin Elmer Top-Count Scintillation plate reader.

Chain of cAMP and cAMP-inhibited cGMP 3',5'-cyclic phosphodiesterase 10A (Q9Y233 whole entry): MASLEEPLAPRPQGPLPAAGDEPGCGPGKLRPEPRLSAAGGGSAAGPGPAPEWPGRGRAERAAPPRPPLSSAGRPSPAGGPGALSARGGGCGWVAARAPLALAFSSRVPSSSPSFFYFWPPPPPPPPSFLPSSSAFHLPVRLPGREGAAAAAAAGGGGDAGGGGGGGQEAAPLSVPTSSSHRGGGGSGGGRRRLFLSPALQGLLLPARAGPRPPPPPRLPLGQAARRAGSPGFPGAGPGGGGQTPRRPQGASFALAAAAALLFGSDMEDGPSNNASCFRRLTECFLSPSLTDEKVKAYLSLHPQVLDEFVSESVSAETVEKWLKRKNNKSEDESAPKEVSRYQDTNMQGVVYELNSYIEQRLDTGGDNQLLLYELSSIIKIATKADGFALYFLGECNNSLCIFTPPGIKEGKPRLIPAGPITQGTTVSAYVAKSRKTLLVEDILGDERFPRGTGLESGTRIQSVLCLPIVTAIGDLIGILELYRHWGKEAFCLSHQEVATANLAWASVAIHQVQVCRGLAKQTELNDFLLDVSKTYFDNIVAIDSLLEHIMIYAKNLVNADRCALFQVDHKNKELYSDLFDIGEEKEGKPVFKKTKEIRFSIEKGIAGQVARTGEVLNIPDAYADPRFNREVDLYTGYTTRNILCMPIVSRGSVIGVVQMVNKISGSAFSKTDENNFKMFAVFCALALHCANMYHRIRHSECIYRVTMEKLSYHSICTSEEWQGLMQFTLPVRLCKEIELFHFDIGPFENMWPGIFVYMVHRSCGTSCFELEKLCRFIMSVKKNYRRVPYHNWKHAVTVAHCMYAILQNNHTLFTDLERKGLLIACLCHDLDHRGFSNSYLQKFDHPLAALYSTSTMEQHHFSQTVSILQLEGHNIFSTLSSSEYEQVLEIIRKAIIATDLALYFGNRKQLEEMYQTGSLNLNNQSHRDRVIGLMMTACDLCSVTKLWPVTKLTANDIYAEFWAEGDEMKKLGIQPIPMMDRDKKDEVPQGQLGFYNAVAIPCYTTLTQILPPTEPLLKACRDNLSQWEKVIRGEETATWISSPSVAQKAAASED

Compound `Cc1ncc(C)n2nc(CCc3nc(N(C)C)nn3C)nc12` has an IC50 of 334 nM.

With `Cn1nc(N2CCCC2)nc1CCc1nc2c(Br)cc(C(F)(F)F)cn2n1` the IC50 was 36.5 nM.

`Cc1ncc(C)n2nc(CCc3nc(N4CCCC4)n(C)n3)nc12` showed an IC50 of 2.68 nM.

Work on `Cc1ccn2nc(CCc3nc(N4CCCC4)nn3C)nc2c1C` yielded an IC50 of 4.49 nM.

Work on `Cc1c(C#N)ccc2nc(CCc3nc(N4CCCC4)nn3C)nn12` yielded an IC50 of 3.47 nM.
